We go through 2 compounds from paper PMC9413491, “A Novel and Cross-Species Active Mammalian INDY (NaCT) Inhibitor Ameliorates Hepatic Steatosis in Mice with Diet-Induced Obesity” (Metabolites, 2022).

Experiment [1] relates to fatty acid synthesis in HepG2 cells. In words: Fatty acid synthesis assay ([14C] citrate incorporation) in HepG2 cells. Type of experiment: cell-based, human. As to the method:
We performed the fatty acid synthesis assay in HepG2 cells. We seeded cells into black clear-bottom 96-well plates (Corning 3340 cell plate) 75,000/well and incubated at 37 °C. After 16–24 h, we washed the plates once with 100 µL PBS (+CaCl2 +MgCl2) and added 50 µL assay medium ([…] containing 11 mM glucose, 10 mM HEPES, and 1 nM insulin) per well. Then, we applied test substances in assay medium (10 µL, 5% DMSO) and incubated for 20 min at 37 °C. Thereafter, we added 10 µL assay medium containing [14C] citrate (final concentration 50 µM) and PrestoBlue reagent (1× final concentration; Thermo Fisher Scientific, Waltham, MA, USA) and incubated for 180 min (37 °C, 5% CO2). We measured cell viability (ViewLux instrument, Perkin Elmer). We removed medium by vacuum aspiration and washed cells once with 100 µL PBS (+CaCl2 +MgCl2). We lysed cells with 50 µL lysis buffer (0.1 N NaOH, 0.1 % Triton X-100) and sealed plates with Tape Pads and vortexed. For the saponification reaction, we incubated plates for 16–24 h at 70 °C in a humidified environment. Then, we removed seals and added 200 µL 0.1 N HCl to neutralise the pH. We transferred 150 µL from each into corresponding wells of a 96-well Flash plate (Perkin Elmer) and sealed with TopSeal A (Perkin Elmer). We incubated plates for 4 h at 70 °C and for at least 3 h at room temperature in the dark. We measured [14C] radioactivity (microbeta2, Perkin Elmer). For control samples, we applied 50 mM unlabelled citrate or C75 (Sigma-Aldrich, St. Louis, MO, USA, C5490).

The target in experiment [2] is T1, human NaCT (Homo sapiens, UniProt Q86YT5).
T1 construct: citrate uptake into HepG2 cells, which endogenously expressed NaCT; host or cells: HepG2
In words: [14C] citrate uptake in HepG2 cells endogenously expressing human NaCT. Type of experiment: cell-based. Particulars: HepG2, human NaCT, citrate substrate. An excerpt:
(§1) We determined activity on human NaCT by measuring citrate uptake into HepG2 cells, which endogenously expressed NaCT [37] and for mouse Nact, using HEK293 cells recombinantly expressing mouse Nact (HEK-Nact). We cloned the mouse Slc13a5 cDNA encoding Nact as described previously.
(§2) For radiometric [14C] citrate uptake assays, we used Cytostar-T plates (Perkin Elmer#RPNQ0166, Waltham, MA, USA). For each assay, we seeded 20,000 HepG2 cells per well on collagen coated 384-well Cytostar-T plates or 5000 HEK293 cells per well on ploy-D-lysine coated 384-well Cytostar-T plates. On the following day, we changed culture medium to assay buffer: 120 mM NaCl, 5.4 mM KCl, 0.8 mM MgSO4, 5 mM glucose, 1.8 mM CaCl2, 25 mM Hepes, 25 mM MES, pH 6.5 (human) and pH 7.5 (mouse). We preincubated cells with compounds at 37 °C for 20 min, after which we added [14C] citrate (3 µM for HEK cells and 10 µM for HepG2 cells) and incubated cells for 50 min at 37 °C. After cooling down for 15 min at 4 °C, we measured the counts using a Microbeta2 reader system (Perkin Elmer).

In experiment [3] the target is T2, mouse Nact (Mus musculus, UniProt Q67BT3).
T2 construct: expressed in transfected cells; host or cells: HEK293 (DSMZ), stably transfected, G418 selection
T2 sequence (Q67BT3 1-572): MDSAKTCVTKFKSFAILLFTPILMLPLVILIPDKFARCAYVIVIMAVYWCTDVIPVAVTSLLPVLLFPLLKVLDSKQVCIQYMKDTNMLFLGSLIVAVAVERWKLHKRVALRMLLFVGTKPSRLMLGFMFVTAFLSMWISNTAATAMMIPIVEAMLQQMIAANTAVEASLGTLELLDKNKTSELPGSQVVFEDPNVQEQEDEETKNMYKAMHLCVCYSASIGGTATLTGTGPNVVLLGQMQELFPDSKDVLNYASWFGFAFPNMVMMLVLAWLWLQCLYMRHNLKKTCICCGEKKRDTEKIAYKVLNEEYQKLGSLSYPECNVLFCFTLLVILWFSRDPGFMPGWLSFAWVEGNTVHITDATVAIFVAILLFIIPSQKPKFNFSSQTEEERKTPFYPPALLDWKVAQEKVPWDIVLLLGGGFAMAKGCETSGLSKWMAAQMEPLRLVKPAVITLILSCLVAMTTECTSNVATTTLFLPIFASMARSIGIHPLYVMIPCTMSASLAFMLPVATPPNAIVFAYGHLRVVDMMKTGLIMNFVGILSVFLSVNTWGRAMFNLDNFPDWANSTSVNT
In words: [14C] citrate uptake in HEK293 cells recombinantly expressing mouse Nact. To be noted: HEK293 mouse Nact. Type of experiment: cell-based.
Source text: as §1, §2

Where two headings read alike, the source gives them in different places.

T1 sequence (Q86YT5 whole entry): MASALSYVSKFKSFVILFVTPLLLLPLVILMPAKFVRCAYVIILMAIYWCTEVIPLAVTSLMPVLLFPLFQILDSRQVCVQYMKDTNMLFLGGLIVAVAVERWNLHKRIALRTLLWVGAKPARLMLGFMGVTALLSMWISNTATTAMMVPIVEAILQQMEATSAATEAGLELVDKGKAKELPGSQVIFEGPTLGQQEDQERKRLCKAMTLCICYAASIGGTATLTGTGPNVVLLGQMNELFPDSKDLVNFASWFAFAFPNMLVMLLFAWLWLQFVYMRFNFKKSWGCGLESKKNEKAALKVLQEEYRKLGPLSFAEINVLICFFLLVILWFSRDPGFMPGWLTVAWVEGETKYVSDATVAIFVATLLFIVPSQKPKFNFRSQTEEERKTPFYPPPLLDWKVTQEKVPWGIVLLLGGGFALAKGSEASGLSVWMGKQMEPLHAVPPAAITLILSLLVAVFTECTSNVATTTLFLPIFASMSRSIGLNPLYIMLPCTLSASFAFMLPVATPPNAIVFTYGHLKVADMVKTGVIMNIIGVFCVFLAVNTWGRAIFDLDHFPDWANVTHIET

In the case of `O=C(NCc1ccc(F)cc1)C1CCN(S(=O)(=O)c2cc(Cl)cc(Cl)c2)CC1` [BI01383298, reference compound], the IC50 in experiment [1] (HepG2, read-out: IC50 HepG2 fatty acid synthesis) was 30 nM; in experiment [2], 78 nM; in experiment [3] (read-out: IC50 HEK293 citrate uptake (mouse)), above 50000 nM. Further, the “Effect on citrate uptake for mouse Nact” value in experiment [3] was “no effects”.

Regarding `CC(C)(C)c1ccc(CC[C@@](O)(CC(=O)O)C(=O)O)cc1` [PF-06649298, reference compound], in experiment [1] (HepG2, [14C] citrate incorporation, read-out: IC50 fatty acid synthesis, HepG2), the IC50 is 39000 nM.
